From paper PMC5988308, “Rhodanine derivatives as potent anti-HIV and anti-HSV microbicides” (PLoS ONE, 2018)
Read-outs that look alike come from different tables or passages of the source.

Columns and labels:
[1] = test system: HIV-1 NL 4.3 WT; assay: Antiviral activity on human CD4+ T lymphocytes, NL4.3 WT; type: cell-based; details: Human immunodeficiency virus 1; human CD4+ T lymphocytes; read-out: NL 4.3 WT EC50
Experimental: (§1) The antiviral activity and cytotoxicity of compounds 2, 9e and 9f was tested also on freshly purified human CD4^+ T lymphocytes obtained from healthy blood donors (informed consent available) as described previously on HIV laboratory strain NL4.3 and AD8 [33, 34].

[2] = test system: HIV-1 AD8 WT; assay: Antiviral activity on human CD4+ T lymphocytes, AD8 WT; type: cell-based; details: Human immunodeficiency virus 1; human CD4+ T lymphocytes; read-out: AD8 WT EC50
Experimental: as §1

[3] = test system: recombinant HIV-1 integrase Q148H, G140S; assay: Antiviral activity on human CD4+ T lymphocytes, integrase mutant Q148H, G140S; type: cell-based; details: Human immunodeficiency virus 1, read-out: Q148H, G140S EC50
[4] = test system: recombinant HIV-1 integrase Y143R; assay: Antiviral activity on human CD4+ T lymphocytes, integrase mutant Y143R; type: cell-based; details: Human immunodeficiency virus 1, read-out: Y143R EC50
[5] = Cytotoxicity on human CD4+ T lymphocytes; type: cell-based
Experimental: as §1

[6] = test system: human CD4+ T lymphocytes; assay: Cytotoxicity on human CD4+ T lymphocytes; type: cell-based
Experimental: as §1

[7] = test system: HSV-1; assay: HSV-1 plaque reduction assay on Vero cells; type: cell-based; details: read-out: HSV-1 EC50, Vero cells
Experimental: (§2) Clinical isolates of HSV-1 and HSV-2 were kindly provided by Prof. M. Pistello, University of Pisa, Italy. HSV-1 and HSV-2 strains were propagated and titrated by plaque assay on Vero cells. A HSV-2 strain with phenotypic resistance to acyclovir was generated by serial passage in the presence of increasing concentrations of acyclovir, as previously described.
(§3) The effect of the rhodanine derivatives on HSV infection was evaluated by plaque reduction assay. Vero cells were pre-plated 24 h in advance in 24-well plates at a density of […]. Increasing concentrations of compounds were mixed with HSV-2 (MOI 0.001 pfu/cell) or HSV-2 acyclovir resistant (MOI 0.001) or HSV-1 (MOI 0.0005) or and incubated for 1 hour at 37°C. The mixtures were subsequently added to the cells, which were then incubated at 37°C for 2 h. The virus inoculum was then removed and the cells washed and overlaid with a medium containing 1.2% methylcellulose (Sigma). After further incubation at 37°C for 24 h (HSV-2 and HSV-2 R Acy) or 48 h (HSV-1), cells were fixed and stained with 0.1% crystal violet in 20% ethanol and viral plaques counted. The effective concentration producing 50% reduction (EC50) and 90% reduction (EC90) in plaque formation was determined using Prism software by comparing drug-treated with wells treated with medium and solvent. The selectivity index (SI) was calculated by dividing the CC50 by the EC50 value.
(§4) All results are presented as the mean values from three independent experiments. The EC50 values for inhibition curves were calculated by regression analysis using the software GraphPad Prism (GraphPad Software, San Diego, California, U.S.A.) by fitting a variable slope-sigmoidal dose–response curve. Acyclovir was purchased from Sigma Aldrich (Milan, Italy).

[8] = test system: HSV-2 acyclovir resistant; assay: HSV-2 acyclovir resistant plaque reduction assay on Vero cells; type: cell-based; details: Human alphaherpesvirus 2, Vero, read-out: HSV-2 acyclovir resistant EC50
Experimental: as §2
as §3, with “The virus inoculum was then removed and the cells washed and overlaid with a medium containing 1.2% methylcellulose (Sigma).” left out, “The effective concentration producing 50% reduction (EC50) and 90% reduction (EC90) in plaque formation was determined using Prism software by comparing drug-treated with wells treated with medium and solvent.” left out
as §4, with “Acyclovir was purchased from Sigma Aldrich (Milan, Italy).” left out

[9] = test system: HIV-1 AD8; assay: Inhibition of antiviral activity by fetal bovine serum (TZM-bl, AD8); type: cell-based; details: FBS 0% to 10%
Experimental: To evaluate the binding of compounds to plasma proteins also in a cell based assay, the infection with the HIV laboratory strain AD8 was performed in absence or in presence of different concentrations of Fetal Bovine Serum (FBS): 2%, 5% and 10%. The representative compound 2 was pre-incubated at different concentrations ranging from 10 μM to 3.2 nM with 300 TCID50 /mL of AD8 in DMEM supplemented with 50 μg/mL penicillin, 50 μg/mL streptomycin, 30 μg/mL DEAE-dextran and FBS at the concentration described above. Maraviroc was used as control. After an hour the mixture was added to 40.000 TZM-bl cells/well plated in a 96-well plate and after two days the infection was quantified using a CPRG assay (Roche) as previously described.

[10] = test system: HIV-1 AD8; assay: Inhibition of antiviral activity by purified bovine serum albumin (TZM-bl, AD8); type: cell-based
Experimental: To confirm the binding of compound 2 to serum albumin, infection was performed in presence of different concentrations of purified bovine serum albumin (BSA, Sigma Aldrich) starting from the concentration that is usually present in FBS serum (35 mg/mL, 1X) and increasing to a five-fold concentration (175 mg/mL) up to a ten-fold concentration (350 mg/mL). […] After one hour, the mixture was added to 40.000 TZM-bl cells/well plated in DMEM supplemented with 50 μg/mL penicillin, 50 μg/mL streptomycin, 30 μg/mL DEAE-dextran and 10% FBS in a 96-well plate. After two days the infection was evaluated through a CPRG assay.

[11] = test system: NL4.3 HIV strain; assay: Antiviral activity in microbicide gel formulation, transwell experiment, TZM-bl cells; type: cell-based, HIV-1; details: Human immunodeficiency virus 1, gel at 50%
Experimental: All the semi-solid formulations were prepared adding at the pre-gel solution reported above hydroxyethyl cellulose (HEC) (1.8% w/v). In all samples, 0.2% v/v propionic acid was added to aqueous solution in order to preserve form bacteria and mold contamination. HEC was dispersed in the pre-gel solution at 25°C under magnetic stirring, overnight.
Antiviral activity of compound 2 on NL4.3 HIV strain was evaluated also in a gel formulation. To reproduce more physiological conditions, TZM-bl cells were seeded into transwells and the gel was applied onto the cell monolayer at 50% fixed concentration with serial drug dilutions as previously described. Briefly, 4x10^4 TZM-bl cells were plated into each transwell apical chamber of a 24-well plate (pore size 3μm and diameter 6,5 mm, Corning) containing medium in the bottom plate and cultured overnight. For efficacy testing, 60 TCID50 of virus was added to each apical well in the presence of 100 μL of compound 2 gel, tenofovir gel or blank gel at the final drug concentrations of 25μM, 10 μM and 5 μM. Inhibition of infection was determined as previously based on deviations from blank gel.

[12] = Storage stability and rheological characterization of gel; type: physicochemical; details: 50 μM, 25°C in the dark
Experimental: All the semi-solid formulations were prepared adding at the pre-gel solution reported above hydroxyethyl cellulose (HEC) (1.8% w/v). In all samples, 0.2% v/v propionic acid was added to aqueous solution in order to preserve form bacteria and mold contamination. HEC was dispersed in the pre-gel solution at 25°C under magnetic stirring, overnight. Gel containing compound 2 was stored at 25°C in the dark. At predetermined data points, the formulations were visually inspected to evidence aggregate formations and the pH was measured. Rheological evaluations were performed using a rotational viscometer (Bohlin Model Visco 88, Bohlin Instruments, UK). Appropriate measuring spindles (C14 DIN) were used during viscosity measurements. Samples were loaded into the cup and allowed to equilibrate for 10 min at desired temperature (25 ± 0.5°C) and apparent viscosity (mPa s) was determined using a shear rate of 552 s^-1 over a 1 month period.

O=C(O)c1ccc(-c2ccc(/C=C3\SC(=S)N(Cc4ccc(Cl)cc4)C3=O)o2)cc1O [Compound 2]
EC50 [1]: 13 ± 3 nM
EC50 [2]: 11 ± 1 nM
EC50 [3]: 9 ± 2 nM
EC50 [4]: 8 ± 3 nM
CC50 [5]: 810 ± 20 nM
SI (Selectivity Index) [6]: 62
EC50 ([7]; Human alphaherpesvirus 1, Vero): 132 nM
EC50 [7]: 131 ± 59.9 nM
EC50 [8]: 10.7 ± 6.34 nM
effect of FBS concentration on antiviral activity [9]: progressive loss of activity
reduction of antiviral activity with physiological BSA, compound at 400 nM ([10]; 1X = 35 mg/mL BSA, 400 nM): about 50%
loss of antiviral activity with physiological BSA, compound at 2 μM ([10]; 1X = 35 mg/mL BSA, 2 μM): 20%
antiviral activity with BSA concentration increased 5 to 10 folds ([10]; 175-350 mg/mL BSA, 400 nM): complete loss of activity
EC50 [11]: 13 µM
recovery after 1 month of storage [12]: about 100%
